Test: mn = molality of the nth substance listed, in mol/kg
Details: 101.3 kPa, Liquid, Vibrating tube method

O=C(O)CC(=O)O [propanedioic acid] + O
mass density [kg/m3]
Details	278.15 K	283.15 K	288.15 K	293.15 K	298.15 K	303.15 K	308.15 K
m1 = 0.01001	1000.48	1000.21	999.61	998.7	997.52	996.14	994.51
m1 = 0.02001	1000.91	1000.62	1000.03	999.1	997.93	996.53	994.89
m1 = 0.03	1001.31	1001	1000.4	999.47	998.3	996.9	995.23
m1 = 0.03962	1001.73	1001.4	1000.79	999.85	998.66	997.28	995.6
m1 = 0.04998	1002.16	1001.83	1001.21	1000.27	999.07	997.66	996
m1 = 0.05936	1002.53	1002.19	1001.57	1000.61	999.4	997.99	996.33
m1 = 0.06926	1002.93	1002.58	1001.95	1000.99	999.78	998.37	996.69
m1 = 0.07949	1003.34	1002.98	1002.34	1001.37	1000.15	998.72	997.06
m1 = 0.08906	1003.73	1003.36	1002.71	1001.73	1000.52	999.08	997.4
m1 = 0.09935	1004.11	1003.73	1003.07	1002.12	1000.89	999.45	997.74
m1 = 0.1984	1008.06	1007.6	1006.87	1005.8	1004.55	1003.05	1001.28
m1 = 0.2977	1011.96	1011.4	1010.6	1009.46	1008.15	1006.6	1004.77
m1 = 0.404	1016	1015.36	1014.47	1013.26	1011.88	1010.27	1008.39
m1 = 0.5055	1019.85	1019.12	1018.15	1016.89	1015.45	1013.79	1011.84
m1 = 0.6055	1023.51	1022.71	1021.67	1020.35	1018.85	1017.14	1015.15
m1 = 0.6936	1026.73	1025.86	1024.77	1023.39	1021.85	1020.08	1018.07
m1 = 0.7926	1030.29	1029.35	1028.19	1026.76	1025.16	1023.35	1021.29
m1 = 0.891	1033.82	1032.8	1031.58	1030.1	1028.44	1026.58	1024.47
m1 = 0.9895	1037.16	1036.1	1034.82	1033.27	1031.58	1029.66	1027.51
